Key:
Test in all cases: relative viability (nuclei count vs DMSO), 5 days (fraction); higher = more cells survive
201T = tested on: 201T
How it was run: (§1)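 After 5 days of treatment, lung cancer cells in 1536-well plates were fixed and stained in a single step (final 0.05% Triton X-100, 1% formaldehyde, 1 ug/ml Hoechst) and their nuclei counted on 4× images. Treatment had been applied by pin tool the day after seeding as one drug alone or as a fixed anchor-drug dose with five library-drug doses (not always all listed) in √10 steps. Relative viability is the nuclei count of treated wells divided by that of vehicle wells, and values are medians of duplicate plates.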

BEN = tested on: BEN
How it was run: as §1

HCC-366 = tested on: HCC-366
How it was run: as §1

HCC-78 = tested on: HCC-78
How it was run: as §1

LOU-NH91 = tested on: LOU-NH91
How it was run: as §1

LU99A = tested on: LU99A
How it was run: as §1

NCI-H1355 = tested on: NCI-H1355
How it was run: as §1

NCI-H1395 = tested on: NCI-H1395
How it was run: as §1

NCI-H1734 = tested on: NCI-H1734
How it was run: as §1

NCI-H1975 = tested on: NCI-H1975
How it was run: as §1

NCI-H2085 = tested on: NCI-H2085
How it was run: as §1

NCI-H2087 = tested on: NCI-H2087
How it was run: as §1

NCI-H2126 = tested on: NCI-H2126
How it was run: as §1

NCI-H2228 = tested on: NCI-H2228
How it was run: as §1

NCI-H322M = tested on: NCI-H322M
How it was run: as §1

NCI-H358 = tested on: NCI-H358
How it was run: as §1

NCI-H647 = tested on: NCI-H647
How it was run: as §1

NCI-H727 = tested on: NCI-H727
How it was run: as §1

PC-14 = tested on: PC-14
How it was run: as §1

SK-LU-1 = tested on: SK-LU-1
How it was run: as §1

SK-MES-1 = tested on: SK-MES-1
How it was run: as §1

UMC-11 = tested on: UMC-11
How it was run: as §1

SMILES: C=C1C(=O)O[C@@H](CCCCCCCC)[C@@H]1C(=O)O [C-75] + Cc1nc(Nc2ncc(C(=O)Nc3c(C)cccc3Cl)s2)cc(N2CCN(CCO)CC2)n1 [Dasatinib] (partner 0.075 µM)
- relative viability (201T; first compound 0.08 µM): 0.612
- relative viability (201T; first compound 0.253 µM): 0.707
- relative viability (201T; first compound 0.8 µM): 0.568
- relative viability (201T; first compound 2.53 µM): 0.511
- relative viability (201T; first compound 8 µM): 0.56
- relative viability (BEN; first compound 0.08 µM): 0.317
- relative viability (BEN; first compound 0.253 µM): 0.271
- relative viability (BEN; first compound 0.8 µM): 0.326
- relative viability (BEN; first compound 8 µM): 0.288
- relative viability (HCC-366; first compound 0.08 µM): 0.744
- relative viability (HCC-366; first compound 0.253 µM): 0.623
- relative viability (HCC-366; first compound 0.8 µM): 0.605
- relative viability (HCC-366; first compound 8 µM): 0.443
- relative viability (HCC-78; first compound 0.08 µM): 0.418
- relative viability (HCC-78; first compound 0.253 µM): 0.469
- relative viability (HCC-78; first compound 0.8 µM): 0.341
- relative viability (HCC-78; first compound 2.53 µM): 0.274
- relative viability (HCC-78; first compound 8 µM): 0.347
- relative viability (LOU-NH91; first compound 0.08 µM): 0.605
- relative viability (LOU-NH91; first compound 0.253 µM): 0.527
- relative viability (LOU-NH91; first compound 0.8 µM): 0.492
- relative viability (LOU-NH91; first compound 2.53 µM): 0.414
- relative viability (LOU-NH91; first compound 8 µM): 0.544
- relative viability (LU99A; first compound 0.08 µM): 0.597
- relative viability (LU99A; first compound 0.253 µM): 0.558
- relative viability (LU99A; first compound 0.8 µM): 0.549
- relative viability (LU99A; first compound 2.53 µM): 0.495
- relative viability (LU99A; first compound 8 µM): 0.38
- relative viability (NCI-H1355; first compound 0.08 µM): 0.71
- relative viability (NCI-H1355; first compound 0.253 µM): 0.613
- relative viability (NCI-H1355; first compound 0.8 µM): 0.702
- relative viability (NCI-H1355; first compound 2.53 µM): 0.649
- relative viability (NCI-H1355; first compound 8 µM): 0.775
- relative viability (NCI-H1395; first compound 0.08 µM): 0.396
- relative viability (NCI-H1395; first compound 0.253 µM): 0.388
- relative viability (NCI-H1395; first compound 0.8 µM): 0.42
- relative viability (NCI-H1395; first compound 2.53 µM): 0.407
- relative viability (NCI-H1395; first compound 8 µM): 0.477
- relative viability (NCI-H1734; first compound 0.08 µM): 0.525
- relative viability (NCI-H1734; first compound 0.253 µM): 0.415
- relative viability (NCI-H1734; first compound 0.8 µM): 0.465
- relative viability (NCI-H1734; first compound 2.53 µM): 0.351
- relative viability (NCI-H1734; first compound 8 µM): 0.337
- relative viability (NCI-H1975; first compound 0.08 µM): 0.364
- relative viability (NCI-H1975; first compound 0.253 µM): 0.432
- relative viability (NCI-H1975; first compound 0.8 µM): 0.318
- relative viability (NCI-H1975; first compound 2.53 µM): 0.324
- relative viability (NCI-H1975; first compound 8 µM): 0.404
- relative viability (NCI-H2085; first compound 0.08 µM): 0.264
- relative viability (NCI-H2085; first compound 0.253 µM): 0.309
- relative viability (NCI-H2085; first compound 0.8 µM): 0.284
- relative viability (NCI-H2085; first compound 2.53 µM): 0.266
- relative viability (NCI-H2085; first compound 8 µM): 0.259
- relative viability (NCI-H2087; first compound 0.08 µM): 0.88
- relative viability (NCI-H2087; first compound 0.253 µM): 1.06
- relative viability (NCI-H2087; first compound 0.8 µM): 0.66
- relative viability (NCI-H2087; first compound 2.53 µM): 0.829
- relative viability (NCI-H2087; first compound 8 µM): 0.865
- relative viability (NCI-H2126; first compound 0.08 µM): 0.665
- relative viability (NCI-H2126; first compound 0.253 µM): 0.657
- relative viability (NCI-H2126; first compound 0.8 µM): 0.576
- relative viability (NCI-H2126; first compound 2.53 µM): 0.448
- relative viability (NCI-H2126; first compound 8 µM): 0.586
- relative viability (NCI-H2228; first compound 0.08 µM): 0.613
- relative viability (NCI-H2228; first compound 0.253 µM): 0.627
- relative viability (NCI-H2228; first compound 0.8 µM): 0.524
- relative viability (NCI-H2228; first compound 2.53 µM): 0.394
- relative viability (NCI-H2228; first compound 8 µM): 0.396
- relative viability (NCI-H322M; first compound 0.08 µM): 0.241
- relative viability (NCI-H322M; first compound 0.253 µM): 0.244
- relative viability (NCI-H322M; first compound 0.8 µM): 0.272
- relative viability (NCI-H322M; first compound 2.53 µM): 0.198
- relative viability (NCI-H322M; first compound 8 µM): 0.313
- relative viability (NCI-H358; first compound 0.08 µM): 0.181
- relative viability (NCI-H358; first compound 0.253 µM): 0.13
- relative viability (NCI-H358; first compound 0.8 µM): 0.157
- relative viability (NCI-H358; first compound 2.53 µM): 0.151
- relative viability (NCI-H358; first compound 8 µM): 0.143
- relative viability (NCI-H647; first compound 0.08 µM): 0.227
- relative viability (NCI-H647; first compound 0.253 µM): 0.114
- relative viability (NCI-H647; first compound 0.8 µM): 0.172
- relative viability (NCI-H647; first compound 2.53 µM): 0.143
- relative viability (NCI-H647; first compound 8 µM): 0.219
- relative viability (NCI-H727; first compound 0.08 µM): 0.406
- relative viability (NCI-H727; first compound 0.253 µM): 0.494
- relative viability (NCI-H727; first compound 0.8 µM): 0.417
- relative viability (NCI-H727; first compound 8 µM): 0.305
- relative viability (PC-14; first compound 0.08 µM): 0.292
- relative viability (PC-14; first compound 0.253 µM): 0.227
- relative viability (PC-14; first compound 0.8 µM): 0.27
- relative viability (PC-14; first compound 2.53 µM): 0.272
- relative viability (PC-14; first compound 8 µM): 0.222
- relative viability (SK-LU-1; first compound 0.08 µM): 0.168
- relative viability (SK-LU-1; first compound 0.253 µM): 0.175
- relative viability (SK-LU-1; first compound 0.8 µM): 0.166
- relative viability (SK-LU-1; first compound 2.53 µM): 0.127
- relative viability (SK-LU-1; first compound 8 µM): 0.172
- relative viability (SK-MES-1; first compound 0.08 µM): 0.357
- relative viability (SK-MES-1; first compound 0.253 µM): 0.286
- relative viability (SK-MES-1; first compound 0.8 µM): 0.319
- relative viability (SK-MES-1; first compound 2.53 µM): 0.332
- relative viability (SK-MES-1; first compound 8 µM): 0.336
- relative viability (UMC-11; first compound 0.08 µM): 0.43
- relative viability (UMC-11; first compound 0.253 µM): 0.547
- relative viability (UMC-11; first compound 0.8 µM): 0.389
- relative viability (UMC-11; first compound 2.53 µM): 0.433
- relative viability (UMC-11; first compound 8 µM): 0.376

— the supplement of paper PMC10307832
